What all share (format): in vivo
Test [1] deals with cocklebur (Xanthium pensylvanicum). Put plainly: Postemergence herbicidal activity, cocklebur. The conditions noted are these: Xanthium strumarium, post-emergence, 336 h; for pest or weed control at 2241.7 g/ha: 2 lb/A; for pest or weed control at 4483.4 g/ha: 4 lb/A. In a few lines: (§1)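 Pre: flats treated immediately post-planting. Post: treated 2 wk after germination. Spray = acetone/water solution, 50 gal/acre carrier, rate in lb/A. Read ~2 wk after treatment as average % plants killed.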

Test [2] deals with downybrome (Bromus tectorum). In words: Preemergence herbicidal activity, downybrome. Particulars: Bromus tectorum, pre-emergence, 336 h, Pre; for pest or weed control at 2241.7 g/ha: 2 lb/A. In a few lines:
as §1

The subject of test [3] is morningglory (Ipomoca spp.). Put plainly: Postemergence herbicidal activity, morningglory. The conditions noted are these: Ipomoea, post-emergence, 336 h; for pest or weed control at 2241.7 g/ha: 2 lb/A; for pest or weed control at 4483.4 g/ha: 4 lb/A. In a few lines:
as §1

Test [4] has as its system velvetleaf (Abutilon theophrasti). In words: Postemergence herbicidal activity, velvetleaf. The conditions noted are these: Abutilon theophrasti, post-emergence, 336 h; for pest or weed control at 2241.7 g/ha: 2 lb/A; for pest or weed control at 4483.4 g/ha: 4 lb/A. In a few lines: (§2)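 Flats of soil-planted weed seeds were treated either right after sowing (preemergence) or two weeks after germination (postemergence). Application was a spray of acetone solution diluted in water, 50 gallons per acre carrier, dosed in lb/A.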

The test system of test [5] is foxtail (Setaria spp.). Put plainly: Postemergence herbicidal activity, foxtail. The conditions noted are these: Setaria, post-emergence, 336 h, Post; for pest or weed control at 2241.7 g/ha: 2 lb/A; for pest or weed control at 4483.4 g/ha: 4 lb/A. In a few lines: as §1
Test [6] relates to tomato (Lycopersicon esculentum). In words: Postemergence herbicidal activity, tomato. Particulars: Solanum lycopersicum, post-emergence, 336 h, Post; for pest or weed control at 2241.7 g/ha: 2 lb/A; for pest or weed control at 4483.4 g/ha: 4 lb/A. In a few lines: as §1
Test [7] has as its system marigold (Tagetes spp.). In words: Preemergence herbicidal activity, marigold. The conditions noted are these: pre-emergence, 336 h; for pest or weed control at 2241.7 g/ha: 2 lb/A. In a few lines:
as §1

Test [8] deals with tomato (Lycopersicon esculentum). In words: Preemergence herbicidal activity, tomato. The conditions noted are these: Solanum lycopersicum, pre-emergence, 336 h, Pre; for pest or weed control at 2241.7 g/ha: 2 lb/A. In a few lines: as §1
The test system of test [9] is velvetleaf (Abutilon theophrasti). Put plainly: Preemergence herbicidal activity, velvetleaf. Particulars: Abutilon theophrasti, pre-emergence, 336 h, Pre; for pest or weed control at 2241.7 g/ha: 2 lb/A. In a few lines:
as §1

In test [10] the test system is yellow nutsedge (Cyperus esculentus). In words: Postemergence herbicidal activity, yellow nutsedge. Particulars: Cyperus, post-emergence, 336 h; for pest or weed control at 2241.7 g/ha: 2 lb/A; for pest or weed control at 4483.4 g/ha: 4 lb/A. In a few lines:
as §1

For test [11], the system named is foxtail (Setaria spp.). In words: Preemergence herbicidal activity, foxtail. The conditions noted are these: Setaria, pre-emergence, 336 h, Pre; for pest or weed control at 2241.7 g/ha: 2 lb/A. In a few lines: as §1
Test [12] concerns wild oats (Avena fatua). In words: Postemergence herbicidal activity, wild oats. Particulars: Avena fatua, post-emergence, 336 h, Post, read-out: % control, Wild oat; for pest or weed control at 2241.7 g/ha: 2 lb/A; for pest or weed control at 4483.4 g/ha: 4 lb/A. In a few lines:
as §1

For test [13], the system named is barnyardgrass (Echinochloa crusgalli). In words: Postemergence herbicidal activity, barnyardgrass. The conditions noted are these: Echinochloa crus-galli, post-emergence, 336 h, Post; for pest or weed control at 2241.7 g/ha: 2 lb/A; for pest or weed control at 4483.4 g/ha: 4 lb/A. In a few lines:
as §2

Test [14] has as its system wild oats (Avena fatua). Put plainly: Preemergence herbicidal activity, wild oats. Particulars: Avena fatua, pre-emergence, 336 h, Pre, read-out: % control, Wild oat; for pest or weed control at 2241.7 g/ha: 2 lb/A. In a few lines:
as §1

The test system of test [15] is morningglory (Ipomoca spp.). In words: Preemergence herbicidal activity, morningglory. Particulars: Ipomoea, pre-emergence, 336 h; for pest or weed control at 2241.7 g/ha: 2 lb/A. In a few lines:
as §1

In test [16] the test system is cocklebur (Xanthium pensylvanicum). In words: Preemergence herbicidal activity, cocklebur. Particulars: Xanthium strumarium, pre-emergence, 336 h; for pest or weed control at 2241.7 g/ha: 2 lb/A. In a few lines: as §1
Test [17] deals with barnyardgrass (Echinochloa crusgalli). In words: Preemergence herbicidal activity, barnyardgrass. The conditions noted are these: Echinochloa crus-galli, pre-emergence, 336 h, Pre; for pest or weed control at 2241.7 g/ha: 2 lb/A. In a few lines:
as §2

The subject of test [18] is downybrome (Bromus tectorum). Put plainly: Postemergence herbicidal activity, downybrome. Particulars: Bromus tectorum, post-emergence, 336 h, Post; for pest or weed control at 2241.7 g/ha: 2 lb/A; for pest or weed control at 4483.4 g/ha: 4 lb/A. In a few lines: as §1
Test [19] deals with marigold (Tagetes spp.). In words: Postemergence herbicidal activity, marigold. The conditions noted are these: post-emergence, 336 h; for pest or weed control at 2241.7 g/ha: 2 lb/A; for pest or weed control at 4483.4 g/ha: 4 lb/A. In a few lines:
as §1

Test [20] concerns yellow nutsedge (Cyperus esculentus). Put plainly: Preemergence herbicidal activity, yellow nutsedge. The conditions noted are these: Cyperus, pre-emergence, 336 h; for pest or weed control at 2241.7 g/ha: 2 lb/A. In a few lines:
as §1

The values that follow come from patent US4335249A, “Herbicidal diphenyl ethers, sulfides, sulfoxides and sulfones” (Rohm and Haas Company, priority 1976, dated 1982).

As to `CCOC(=O)C(C)Oc1ccc(Oc2ccc(C(F)(F)F)cc2Cl)cc1C` (stereo not shown) [Example 10], the pest or weed control at 2241.7 g/ha was 40% in test [1]; 0% in test [2]; 80% in test [3]; 40% in [4]; 0% in the test on foxtail (Setaria spp.) [5]; 30% in test [6]. Further, the pest or weed control at 2241.7 g/ha (with marigold (Tagetes spp.) [7]; in [8]; in test [9]; in test [10]; in the test with foxtail (Setaria spp.) [11]; in the test on wild oats (Avena fatua) [12]) was 0% each time. Also, the pest or weed control at 2241.7 g/ha (in test [13]; with wild oats (Avena fatua) [14]; in test [15]; in test [16]; in test [17]; in [18]) was 0% in each case. Moreover, the pest or weed control at 2241.7 g/ha (in the test with marigold (Tagetes spp.) [19]; in test [20]) was 0% in each case.
As to `CCOC(=O)C(C)Oc1ccc([S+]([O-])c2cccc(C(F)(F)F)c2)cc1` (stereo not shown) [Example 50], the pest or weed control at 4483.4 g/ha was found to be 0% in [1]; 0% in test [2] (4 lb/A); 0% in test [3]; 0% in test [4]; 0% in the test with foxtail (Setaria spp.) [5]; 20% in [6]. The pest or weed control at 4483.4 g/ha in the test with marigold (Tagetes spp.) [7] (4 lb/A) was 0%; in test [8] (4 lb/A), 0%; in [9] (4 lb/A), 0%; in test [10], 0%; in the test with foxtail (Setaria spp.) [11] (4 lb/A), 0%; with wild oats (Avena fatua) [12], 20%. The pest or weed control at 4483.4 g/ha was determined as 20% in [13]; 0% in the test with wild oats (Avena fatua) [14] (4 lb/A); 0% in test [15] (4 lb/A); 0% in test [16] (4 lb/A); 0% in test [17] (4 lb/A); 0% in test [18]. Moreover, the pest or weed control at 4483.4 g/ha (with marigold (Tagetes spp.) [19]; in test [20] (4 lb/A)) was 0% each time.
For `COC(=O)C(C)Oc1ccc(Oc2ccc(C(F)(F)F)cc2Cl)cc1` (stereo not shown) [Example 4, Methyl 2-[4-(2-chloro-4-trifluoromethylphenoxy)phenoxy] propionate], the pest or weed control at 2241.7 g/ha in test [1] turned out to be 100%; in [2] it was 0%; in test [3], 20%; in test [4], 80%; in the test with foxtail (Setaria spp.) [5] it was 100%; in test [6] it was 60%. Besides, the pest or weed control at 2241.7 g/ha in the test with marigold (Tagetes spp.) [7] was 0%; in test [8] it was 0%; in test [9] it was 20%; in test [10], 0%; in the test on foxtail (Setaria spp.) [11], 100%; in the test on wild oats (Avena fatua) [12], 100%. Besides, the pest or weed control at 2241.7 g/ha in test [13] stood at 100%; in the test with wild oats (Avena fatua) [14], 40%; in [15], 0%; in [16] it was 0%; in [17], 100%; in test [18], 99%. In addition, the pest or weed control at 2241.7 g/ha came out at 30% in the test with marigold (Tagetes spp.) [19] and 0% in [20].
Take `CCOC(=O)C(C)Oc1ccc(Sc2ccc(C(F)(F)F)cc2)cc1` (stereo not shown) [Example 46]: the pest or weed control at 4483.4 g/ha in test [1] turned out to be 0%; in [3], 0%; in test [4], 0%; in the test with foxtail (Setaria spp.) [5] it was 30%; in test [6], 80%; in [10], 0%. Besides, the pest or weed control at 4483.4 g/ha with wild oats (Avena fatua) [12] was found to be 20%; in test [13], 50%; in test [18] it was 30%; in the test on marigold (Tagetes spp.) [19], 0%. In addition, the pest or weed control at 8966.8 g/ha in test [2] (8 lb/A) came to 50%; with marigold (Tagetes spp.) [7] (8 lb/A), 0%; in test [8] (8 lb/A) it was 0%; in [9] (8 lb/A) it was 0%; with foxtail (Setaria spp.) [11] (8 lb/A) it was 70%; with wild oats (Avena fatua) [14] (8 lb/A) it was 0%. Besides, the pest or weed control at 8966.8 g/ha in [15] (8 lb/A) amounted to 0%; in test [16] (8 lb/A), 0%; in test [17] (8 lb/A), 70%; in [20] (8 lb/A), 0%.
For the compound `CCOC(=O)C(C)Oc1ccc(Sc2ccc(C(F)(F)F)cc2Cl)cc1` (stereo not shown) [Example 3, Ethyl 2-[4-(2-Chloro-4-trifluoromethylphenylthio)phenoxy] propionate], the pest or weed control at 2241.7 g/ha was found to be 20% in test [1]; 40% in test [2]; 50% in test [3]; 70% in test [4]; 100% in the test with foxtail (Setaria spp.) [5]; 70% in test [6]. For the same compound, the pest or weed control at 2241.7 g/ha with marigold (Tagetes spp.) [7] stood at 0%; in test [8], 0%; in test [9], 0%; in test [10] it was 66%; in the test with foxtail (Setaria spp.) [11], 100%; in the test on wild oats (Avena fatua) [12], 99%. For the same compound, the pest or weed control at 2241.7 g/ha in test [13] was determined as 70%; in the test on wild oats (Avena fatua) [14] it was 30%; in test [15], 0%; in [16], 0%; in [17], 95%; in test [18], 90%. Also, the figures for the pest or weed control at 2241.7 g/ha (in the test on marigold (Tagetes spp.) [19]; in [20]) were 50% and 0%, respectively.
